Like-named read-outs stand apart in the source and are kept apart here. Each block holds one molecule with its values, some of them ahead of it. Non-standard residues stand in square brackets, D forms with d. Residues, ends and D or L forms follow the SMILES beside them.
Assays:
P. aeruginosa PAO1 = assay: microbe, parasite or virus in culture; conditions: PAO1; for MICb: the MIC of the peptide: peptide alone
Protocol: (§1) The MIC tests were performed in triplicate using broth microdilution in accordance with Clinical and Laboratory Standards Institute (CLSI) recommendations (http://iacld.ir/DL/public/CLSI-2018-M100-S28.pdf). Briefly, drugs were two-fold diluted in MHB and mixed with an equal volume of bacterial suspensions containing approximately 1 × 10^6 CFU/mL in 96-well microliter plate. After 18 h incubation at 37 °C, the MIC values were defined as the lowest concentrations of antibiotics with no visible growth of bacteria. […] Otherwise, 1/4 MIC of the peptide was used in the combination. […] If needed, membrane compounds PG, PE, PC, CL or LPS, or membrane stabilizers MgCl2 or CaCl2, or efflux pumps inhibitor PAβN were added to the broth medium to clarify the effect of other substances on the synergy between peptide and antibiotics. All the tests were performed in triplicate.
The fractional inhibitory concentration (FIC) indices were calculated using the previously described formula FICI = FICa + FICb = MICac/MICa + MICbc/MICb. The FICI was interpreted according to EUCAST [65] as follows: synergistic, FICI≤0.5; additive, 0.5<FICI≤1; indifferent, 1<FICI<2; antagonistic, FICI ≥2. For the FICI calculations, twice the highest concentration tested was used in the cases where the MIC was not reached.

[1] = test system: clinical P. aeruginosa isolates; assay: microbe, parasite or virus in culture; conditions: Pseudomonas aeruginosa, 18 h, antibiotic alone
Protocol: The bacterial strains, primers and plasmids used in this study are listed in S5 Table. […] Bacteria were cultured in LB medium or cation-adjusted Muller-Hinton broth (CA-MHB) at 37 °C with agitation at 220 rpm. All the antibiotics and chemical compounds used in this study were purchased from Sigma-Aldrich.
as §1

[2] = S3 Table, antibiotic + 2 μM D-11
[3] = S3 Table, antibiotic + 4 μM D-11
[4] = peptide + azithromycin, twice the highest concentration used where MIC not reached
[5] = broth microdilution in MHB, 18 h, 37 °C, triplicate

MICac: the MIC for the antibiotic in the combination (P. aeruginosa PAO1; S3 Table, with 2 μM D-11): 128/128 μM
MICac: the MIC for the antibiotic in the combination (P. aeruginosa PAO1; S3 Table, with 4 μM D-11): 128/128 μM
MICa: the MIC of antibiotics (P. aeruginosa PAO1; S3 Table, antibiotic alone): 128/128 μM
Structure (SMILES): CCO/N=C(\C(=O)N[C@@H]1C(=O)N2C(C(=O)[O-])=C(Sc3nc(-c4cc[n+](C)cc4)cs3)CS[C@H]12)c1nsc(N)n1 [Ceftaroline]
FICI (P. aeruginosa PAO1; [2]): 1.063
FICI (P. aeruginosa PAO1; [3]): 1.125

Structure (SMILES): CC1=C(C(=O)O)N2C(=O)[C@@H](NC(=O)[C@H](N)c3ccccc3)[C@H]2SC1 [Cephalexin]
FICI (P. aeruginosa PAO1; [2]): 1.063
FICI (P. aeruginosa PAO1; [3]): 1.125

Structure (SMILES): CC[C@@H](C)[C@@H](NC(=O)[C@H](N)CCCNC(=N)N)C(=O)N[C@@H](C(=O)N[C@H](CCC(N)=O)C(=O)N[C@H](CCCNC(=N)N)C(=O)N[C@@H](C(=O)N[C@H](CCCNC(=N)N)C(=O)N[C@H](CCCNC(=N)N)C(=O)N[C@H](Cc1c[nH]c2ccccc12)C(=O)N[C@H](CC(C)C)C(=O)N[C@H](CCCNC(=N)N)C(N)=O)[C@H](C)CC)C(C)C [D-11-k(r)] (H-[dR][dI][dV][dQ][dR][dI][dR][dR][dW][dL][dR]-NH2)
FICI (P. aeruginosa PAO1; peptide + Azithromycin, higher peptide concentration line): 0.156
FICI (P. aeruginosa PAO1; peptide + Azithromycin, lower peptide concentration line): 0.188
FICI (P. aeruginosa PAO1; peptide + Clarithromycin, higher peptide concentration line): 0.156
FICI (P. aeruginosa PAO1; peptide + Clarithromycin, lower peptide concentration line): 0.125
FICI (P. aeruginosa PAO1; peptide + Erythromycin, higher peptide concentration line): 0.188
FICI (P. aeruginosa PAO1; peptide + Erythromycin, lower peptide concentration line): 0.188
FICI (P. aeruginosa PAO1; peptide + Spiramycin, higher peptide concentration line): 1.125
FICI (P. aeruginosa PAO1; peptide + Spiramycin, lower peptide concentration line): 1.063
FICI (P. aeruginosa PAO1; peptide + Telithromycin, higher peptide concentration line): 0.188
FICI (P. aeruginosa PAO1; peptide + Telithromycin, lower peptide concentration line): 0.188
FICI (P. aeruginosa PAO1; [4]): 0.156
MICb: the MIC of the peptide (P. aeruginosa PAO1; S1 Table): 64 µM

Structure (SMILES): CC[C@@H](C)[C@@H](NC(=O)[C@@H](CC(C)C)NC(=O)[C@@H](CCCNC(=N)N)NC(=O)[C@@H](Cc1c[nH]c2ccccc12)NC(=O)[C@H](N)CC(C)C)C(=O)N[C@H](CCCNC(=N)N)C(=O)N[C@H](CCCNC(=N)N)C(=O)N[C@H](Cc1ccccc1)C(=O)N[C@H](CC(C)C)C(=O)N[C@H](CCCNC(=N)N)C(=O)N[C@H](CCCNC(=N)N)C(N)=O [D-RW-BP100R] (H-[dL][dW][dR][dL][dI][dR][dR][dF][dL][dR][dR]-NH2)
FICI (P. aeruginosa PAO1; [4]): 1.250
MICb: the MIC of the peptide (P. aeruginosa PAO1; [5]): 4 µM

Structure (SMILES): CC[C@@H](C)[C@@H](NC(=O)[C@@H](CCCNC(=N)N)NC(=O)[C@@H](CCCNC(=N)N)NC(=O)[C@@H](Cc1ccccc1)NC(=O)[C@@H](CC(C)C)NC(=O)[C@@H](CCCNC(=N)N)NC(=O)[C@H](N)CCCNC(=N)N)C(=O)N[C@H](CC(C)C)C(=O)N[C@H](CCCNC(=N)N)C(=O)N[C@H](Cc1c[nH]c2ccccc12)C(=O)N[C@H](CC(C)C)C(N)=O [D-RW-BP100] (H-[dR][dR][dL][dF][dR][dR][dI][dL][dR][dW][dL]-NH2)
FICI (P. aeruginosa PAO1; [4]): 1.250
MICb: the MIC of the peptide (P. aeruginosa PAO1; [5]): 8 µM

Structure (SMILES): CC[C@H](C)[C@H](NC(=O)[C@H](CCCCN)NC(=O)[C@H](CCC(=O)O)NC(=O)[C@H](CCCCN)NC(=O)[C@H](CO)NC(=O)[C@H](CCCCN)NC(=O)[C@H](CCCNC(=N)N)NC(=O)[C@H](Cc1ccccc1)NC(=O)[C@H](Cc1ccccc1)NC(=O)[C@H](CC(=O)O)NC(=O)CNC(=O)[C@H](CC(C)C)NC(=O)[C@@H](N)CC(C)C)C(=O)NCC(=O)N[C@@H](CCCCN)C(=O)N[C@@H](CCC(=O)O)C(=O)N[C@@H](Cc1ccccc1)C(=O)N[C@@H](CCCCN)C(=O)N[C@@H](CCCNC(=N)N)C(=O)N[C@H](C(=O)N[C@H](C(=O)N[C@@H](CCC(N)=O)C(=O)N[C@@H](CCCNC(=N)N)C(=O)N[C@H](C(=O)N[C@@H](CCCCN)C(=O)N[C@@H](CC(=O)O)C(=O)N[C@@H](Cc1ccccc1)C(=O)N[C@@H](CC(C)C)C(=O)N[C@@H](CCCNC(=N)N)C(=O)N[C@@H](CC(N)=O)C(=O)N[C@@H](CC(C)C)C(=O)N[C@H](C(=O)N1CCC[C@H]1C(=O)N[C@@H](CCCNC(=N)N)C(=O)N[C@H](C(=O)N[C@@H](CCC(=O)O)C(=O)N[C@@H](CO)C(=O)O)[C@@H](C)O)C(C)C)[C@@H](C)CC)C(C)C)[C@@H](C)CC [LL-37]
FICI (P. aeruginosa PAO1; [4]): 0.75

Structure (SMILES): Cc1ncc([N+](=O)[O-])n1CCO [Metronidazole]
FICI (P. aeruginosa PAO1; [2]): 1.063
FICI (P. aeruginosa PAO1; [3]): 1.125

Structure (SMILES): CN(C)[C@@H]1C(O)=C(C(N)=O)C(=O)[C@@]2(O)C(O)=C3C(=O)c4c(O)cccc4[C@@](C)(O)[C@H]3C[C@@H]12 [Tetracycline]
MIC ([1]; read-out: Antibiotic sensibility (MIC) of clinical P. aeruginosa isolate AUMC-Pa-2, strain AUMC-Pa-2): 64 µM
MIC ([1]; read-out: Antibiotic sensibility (MIC) of clinical P. aeruginosa isolate AUMC-Pa-3, strain AUMC-Pa-3): 64 µM
MIC ([1]; read-out: Antibiotic sensibility (MIC) of clinical P. aeruginosa isolate AUMC-Pa-5, strain AUMC-Pa-5): 64 µM
MIC ([1]; read-out: Antibiotic sensibility (MIC) of clinical P. aeruginosa isolate AUMC-Pa-6, strain AUMC-Pa-6): 64 µM
MIC ([1]; read-out: Antibiotic sensibility (MIC) of clinical P. aeruginosa isolate HM-214, strain HM-214): 64 µM
MIC ([1]; read-out: Antibiotic sensibility (MIC) of clinical P. aeruginosa isolate NR-31040, strain NR-31040): 64 µM
MIC ([1]; read-out: Antibiotic sensibility (MIC) of clinical P. aeruginosa isolate NR-31041, strain NR-31041): 64 µM
